Reference: EP1362589A1, “The use of R(+)-alpha-(2,3-dimethoxyphenyl)-1-(2-(4-fluorophenyl)ethyl)-4- piperidinemethanol for the treatment of sleep disorders” (Aventis Pharmaceuticals Inc., priority 1998, dated 2000)

Legend:
Type in all cases: in vivo
[1] = system: newborn Sprague Dawley rats; test: Depression of genioglossal EMG induced by L-Tryptophan and Pargyline
Procedure: (§1) Experiments were carried out on newborn Sprague Dawley rats from Iffa Credo breeding centre. The animals were anaesthetised by intraperitoneal injection of low doses of sodium pentobarbitone (7-10mg/kg), kept lying (dorsal cubitus) on a warming blanket and were spontaneously ventilating.
(§2) The EMG activity of the genioglossal muscles and the diaphragm were recorded with fine insulated wires (bipolar recordings) inserted within the muscles, filtered (100-3,000 Hz), amplified (x 5-10,000) and integrated (time constant 50 ms). The rib cage movements were recorded via a captor gently touching the lower ribs and/or the abdominal wall. The air flow changes resulting from the respiratory chest movements were recorded via a facial mask and a highly sensitive pressure recorder.
Ten to fifteen minutes after induction of anaesthesia, the animals received first an intraperitoneal injection of the COMPOUND, and a control recording was taken to define the mean amplitude of the integrated EMGs. Then, the animal received an intraperitoneal injection of L-Tryptophan plus Pargyline ("L-Trp+Parg") 10mg/kg and 50mg/kg, respectively, and the changes in EMG amplitudes were checked every 10 minutes and were expressed as % of control values.

[2] = system: newborn Sprague Dawley rats; test: Occurrence of obstructive apneas induced by L-Tryptophan and Pargyline injection
Procedure: Intraperitoneal application of L-Tryptophan (10mg/kg) and Pargyline (50mg/kg) to anaesthesized newborn rats depressed the amplitude of the inspiratory discharges of the genioglossal muscle and induced obstructive apneas (OA).
as §1, §2

healthy subjects [3] = test: Single oral dose in healthy subjects, reported sedation (Example 4A); details: orally
Procedure: Forty percent of the subjects receiving the 20mg dose (2 out of 5) and sixty percent of the subjects receiving the 10mg dose (3 out of 5) experienced mild to moderate sedation. […]

[4] = system: patients diagnosed with schizophrenia; test: Oral twice-daily dosing in patients with schizophrenia, reported insomnia and somnolence (Example 4B); details: orally
Procedure: Forty percent of the subjects receiving the 20mg dose (2 out of 5) and sixty percent of the subjects receiving the 10mg dose (3 out of 5) experienced mild to moderate sedation. […] The following data were reported.

healthy subjects [5] = test: Oral doses in healthy subjects, reported drowsiness (Example 4C); details: for Drowsiness, % of subjects / Drowsiness, n subjects: group n=4
Procedure: The following data were reported. […] Only the group receiving the 72mg dose reported drowsiness ([…]).

healthy subjects [6] = test: Oral doses 3-72 mg in healthy subjects, reported drowsiness (Example 4D); details: 72mg dose (n=4); only this group among 3, 9, 18, 36 and 72mg reported drowsiness
Procedure: Only the group receiving the 72mg dose reported drowsiness (n=3).

## Cn1c(=O)c2[nH]cnc2n(C)c1=O [theophylline, reference compound]
[1]; 10mg/kg, five newborn rats
  prevention of depression of the amplitude of GG inspiratory discharges by L-Trp+Prg: not prevented
[1]; 30mg/kg, 5 animals
  prevention of depression of the amplitude of GG inspiratory discharges by L-Trp+Prg: not prevented
[2]; 10 mg/kg
  prevention of induction of OAs after L-Trp+Prg injection: not prevented
[2]; 30 mg/kg
  prevention of induction of OAs after L-Trp+Prg injection: not prevented

## COc1cccc([C@H](O)C2CCN(CCc3ccc(F)cc3)CC2)c1OC [COMPOUND, R-(+)-α-(2,3-Dimethoxyphenyl)-1-[2-(4-fluorophenyl)ethyl]-4-piperidinemethanol]
Healthy subjects [3]; single 10mg dose
  subjects experienced mild to moderate sedation: 3 out of 5
Healthy subjects [3]; single 20mg dose
  subjects experienced mild to moderate sedation: 2 out of 5
[4]; 10 mg (5mg twice daily)
  Insomnia, % of subjects: N=0; 0%
  Insomnia, N (number of subjects that reported the effect): N=0; 0%
  Somnolence, % of subjects: 20%
  Somnolence, N (number of subjects that reported the effect): 3
[4]; 20 mg (10mg twice daily)
  Insomnia, % of subjects: 21.4%
  Insomnia, N (number of subjects that reported the effect): 3
  Somnolence, % of subjects: 15.4%
  Somnolence, N (number of subjects that reported the effect): N=1;
[4]; 40 mg (20mg twice daily)
  Insomnia, % of subjects: 23.1%
  Insomnia, N (number of subjects that reported the effect): 3
  Somnolence, % of subjects: 15.4%
  Somnolence, N (number of subjects that reported the effect): N=2;
Healthy subjects [5]; 9 mg orally
  Drowsiness, % of subjects: 50%
  Drowsiness, n subjects: 2
Healthy subjects [5]; 18 mg orally
  Drowsiness, % of subjects: 100%
  Drowsiness, n subjects: 4
Healthy subjects [5]; 36 mg orally
  Drowsiness, % of subjects: 100%
  Drowsiness, n subjects: 4
Healthy subjects [5]; 72 mg and above
  drowsiness rating: moderate to severe
Healthy subjects [5]; 72 mg orally
  Drowsiness, % of subjects: 75%
  Drowsiness, n subjects: 3
Healthy subjects [5]; 108 mg orally
  Drowsiness, % of subjects: 100%
  Drowsiness, n subjects: 4
Healthy subjects [5]; 138 mg orally
  Drowsiness, % of subjects: 100%
  Drowsiness, n subjects: 4
Healthy subjects [5]; doses below 72 mg
  drowsiness rating: mild or moderate
Healthy subjects [6]
  reported drowsiness, n subjects: 3
[1]; pre-treatment 0.1 mg/kg intraperitoneal, ten animals
  prevention of the depression of genioglossal (GG) discharge induced by L-Trp+Parg: did not prevent
[1]; pre-treatment 1mg/kg intraperitoneal, ten newborn rats
  prevention of the depression of genioglossal (GG) discharge induced by L-Trp+Parg: efficient in preventing the GG depression
[1]; pre-treatment 3mg/kg intraperitoneal, ten animals
  prevention of the depression of genioglossal (GG) discharge induced by L-Trp+Parg: confirmed the efficiency
[2]; pre-treatment 0.1 mg/kg
  animals that died of respiratory distress: 4 of the 10
  newborn rats in which L-Trp+Parg injection induced OAs: 9 of 10
[2]; pre-treatment 1mg/kg
  newborn rats that did not present short lasting OAs at all: Five out of ten
  newborn rats which displayed OAs: 5 of 10
  newborn rats with long lasting OAs: one
  survival to L-Trp+Parg injection: all animals survived
[2]; pre-treatment 1mg/kg, among the 5 of 10 which displayed OAs
  animals with infrequent OAs (less than 5 short lasting OAs in 60 minutes): 2
[2]; pre-treatment 1mg/kg, between 20-40 min after the injection, mean curve
  peak frequency of occurrence of short lasting OAs: 4 OAs per 10 minute period
[2]; pre-treatment 3mg/kg
  animals that displayed long lasting OAs: None of the 10
  rats with a total of less than 3 short lasting Oas: 3 of 10
  rats with no short lasting Oas: 5 of 10
  survival: all survived
  treated rats with frequent short lasting Oas: 2 of 10
